Columns and labels:
[1] = molecular target: T1, Fibroblast growth factor receptor 4 (Homo sapiens, UniProt P22455); experiment: Inhibition of FGFR4 (unknown origin) after 90 mins by TR-FRET assay
[2] = Cytotoxicity against mouse B16F10 cells after 72 hrs by MTT assay; conditions: B16-F10, 72 h
[3] = Cytotoxicity against human HL7702 cells after 72 hrs by MTT assay; conditions: L02, 72 h
[4] = Cytotoxicity against human HeLa 229 cells after 72 hrs by MTT assay; conditions: HeLa 229, 72 h
A549 = experiment: Cytotoxicity against human A549 cells after 72 hrs by MTT assay; conditions: A549, 72 h
[5] = molecular target: Fibroblast growth factor receptor 3 (Homo sapiens, UniProt P22607); experiment: Inhibition of FGFR3 (unknown origin) after 90 mins by TR-FRET assay
[6] = Cytotoxicity against human HL7702 cells assessed as cell survival at 2 to 10 uM after 72 hrs by MTT assay; format: cell-based; conditions: l02, 72 h
[7] = molecular target: T1, Fibroblast growth factor receptor 4; experiment: Inhibition of FGFR4 (unknown origin)
[8] = molecular target: Fibroblast growth factor receptor 1 (Homo sapiens, UniProt P11362)
Description: Inhibition of FGFR1 (unknown origin) after 90 mins by TR-FRET assay

[9] = molecular target: Fibroblast growth factor receptor 2 (Homo sapiens, UniProt P21802); experiment: Inhibition of FGFR2 (unknown origin) after 90 mins by TR-FRET assay
Fibroblast growth factor receptor 2, sequence (P21802 whole entry): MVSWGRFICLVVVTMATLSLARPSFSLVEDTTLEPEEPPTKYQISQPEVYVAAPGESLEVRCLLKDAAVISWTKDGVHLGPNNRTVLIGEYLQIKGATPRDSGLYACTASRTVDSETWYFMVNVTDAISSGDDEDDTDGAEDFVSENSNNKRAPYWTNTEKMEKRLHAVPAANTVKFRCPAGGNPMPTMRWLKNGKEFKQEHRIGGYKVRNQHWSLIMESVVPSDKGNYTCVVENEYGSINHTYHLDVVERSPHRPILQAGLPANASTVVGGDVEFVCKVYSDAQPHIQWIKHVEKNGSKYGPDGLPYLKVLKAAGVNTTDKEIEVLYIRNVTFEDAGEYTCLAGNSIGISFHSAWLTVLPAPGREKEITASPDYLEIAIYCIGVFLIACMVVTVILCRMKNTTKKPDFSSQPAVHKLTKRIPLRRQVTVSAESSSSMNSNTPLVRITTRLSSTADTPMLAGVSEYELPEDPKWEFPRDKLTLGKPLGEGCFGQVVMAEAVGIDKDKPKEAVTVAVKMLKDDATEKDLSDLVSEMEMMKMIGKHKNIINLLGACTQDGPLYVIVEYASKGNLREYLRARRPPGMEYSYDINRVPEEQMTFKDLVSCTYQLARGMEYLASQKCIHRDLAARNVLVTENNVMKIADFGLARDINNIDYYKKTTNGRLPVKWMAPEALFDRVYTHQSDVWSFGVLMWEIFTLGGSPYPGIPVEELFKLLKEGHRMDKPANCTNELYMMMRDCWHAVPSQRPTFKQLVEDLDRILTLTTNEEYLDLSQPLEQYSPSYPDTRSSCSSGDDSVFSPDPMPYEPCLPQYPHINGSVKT

T1 sequence (P22455 whole entry): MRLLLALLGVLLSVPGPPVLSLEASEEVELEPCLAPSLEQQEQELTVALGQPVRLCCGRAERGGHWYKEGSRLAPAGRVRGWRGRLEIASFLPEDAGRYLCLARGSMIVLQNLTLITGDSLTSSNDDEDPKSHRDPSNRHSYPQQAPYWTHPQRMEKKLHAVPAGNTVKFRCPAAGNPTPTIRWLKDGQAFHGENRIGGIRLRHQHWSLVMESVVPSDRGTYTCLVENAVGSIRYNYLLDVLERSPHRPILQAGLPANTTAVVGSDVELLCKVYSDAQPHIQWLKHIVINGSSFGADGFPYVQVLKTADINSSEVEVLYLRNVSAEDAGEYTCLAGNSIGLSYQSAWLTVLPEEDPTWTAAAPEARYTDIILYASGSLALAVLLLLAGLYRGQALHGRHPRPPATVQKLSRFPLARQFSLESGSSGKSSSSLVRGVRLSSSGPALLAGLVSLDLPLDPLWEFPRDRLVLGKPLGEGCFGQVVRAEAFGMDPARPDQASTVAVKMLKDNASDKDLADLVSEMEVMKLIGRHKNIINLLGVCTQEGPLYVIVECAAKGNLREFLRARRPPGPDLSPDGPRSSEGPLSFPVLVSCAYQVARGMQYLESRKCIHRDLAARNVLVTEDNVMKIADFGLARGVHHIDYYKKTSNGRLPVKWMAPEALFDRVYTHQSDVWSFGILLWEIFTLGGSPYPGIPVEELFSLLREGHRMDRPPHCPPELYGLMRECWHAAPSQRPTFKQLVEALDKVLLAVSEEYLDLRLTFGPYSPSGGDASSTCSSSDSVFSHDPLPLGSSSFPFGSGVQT
Fibroblast growth factor receptor 3, sequence (P22607 whole entry): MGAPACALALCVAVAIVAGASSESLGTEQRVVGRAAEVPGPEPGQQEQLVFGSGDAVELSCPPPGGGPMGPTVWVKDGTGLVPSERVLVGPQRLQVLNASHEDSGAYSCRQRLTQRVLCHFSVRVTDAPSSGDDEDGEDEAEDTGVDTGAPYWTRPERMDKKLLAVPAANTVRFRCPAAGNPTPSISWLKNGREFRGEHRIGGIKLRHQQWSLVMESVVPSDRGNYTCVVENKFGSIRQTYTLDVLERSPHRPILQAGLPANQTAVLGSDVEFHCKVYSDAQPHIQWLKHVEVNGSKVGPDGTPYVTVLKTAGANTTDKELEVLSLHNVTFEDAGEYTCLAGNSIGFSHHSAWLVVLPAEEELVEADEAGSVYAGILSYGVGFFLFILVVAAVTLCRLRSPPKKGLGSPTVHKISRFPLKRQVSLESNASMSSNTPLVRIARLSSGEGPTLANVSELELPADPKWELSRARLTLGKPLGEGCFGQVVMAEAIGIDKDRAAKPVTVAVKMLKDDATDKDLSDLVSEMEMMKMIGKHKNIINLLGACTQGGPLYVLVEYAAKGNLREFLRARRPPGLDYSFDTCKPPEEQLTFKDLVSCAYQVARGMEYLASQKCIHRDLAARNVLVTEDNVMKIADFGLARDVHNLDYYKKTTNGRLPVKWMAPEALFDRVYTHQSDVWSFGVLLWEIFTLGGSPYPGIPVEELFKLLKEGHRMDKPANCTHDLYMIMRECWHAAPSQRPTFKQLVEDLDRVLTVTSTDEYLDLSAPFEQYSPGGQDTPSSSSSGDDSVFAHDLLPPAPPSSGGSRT
Fibroblast growth factor receptor 1, sequence (P11362 whole entry): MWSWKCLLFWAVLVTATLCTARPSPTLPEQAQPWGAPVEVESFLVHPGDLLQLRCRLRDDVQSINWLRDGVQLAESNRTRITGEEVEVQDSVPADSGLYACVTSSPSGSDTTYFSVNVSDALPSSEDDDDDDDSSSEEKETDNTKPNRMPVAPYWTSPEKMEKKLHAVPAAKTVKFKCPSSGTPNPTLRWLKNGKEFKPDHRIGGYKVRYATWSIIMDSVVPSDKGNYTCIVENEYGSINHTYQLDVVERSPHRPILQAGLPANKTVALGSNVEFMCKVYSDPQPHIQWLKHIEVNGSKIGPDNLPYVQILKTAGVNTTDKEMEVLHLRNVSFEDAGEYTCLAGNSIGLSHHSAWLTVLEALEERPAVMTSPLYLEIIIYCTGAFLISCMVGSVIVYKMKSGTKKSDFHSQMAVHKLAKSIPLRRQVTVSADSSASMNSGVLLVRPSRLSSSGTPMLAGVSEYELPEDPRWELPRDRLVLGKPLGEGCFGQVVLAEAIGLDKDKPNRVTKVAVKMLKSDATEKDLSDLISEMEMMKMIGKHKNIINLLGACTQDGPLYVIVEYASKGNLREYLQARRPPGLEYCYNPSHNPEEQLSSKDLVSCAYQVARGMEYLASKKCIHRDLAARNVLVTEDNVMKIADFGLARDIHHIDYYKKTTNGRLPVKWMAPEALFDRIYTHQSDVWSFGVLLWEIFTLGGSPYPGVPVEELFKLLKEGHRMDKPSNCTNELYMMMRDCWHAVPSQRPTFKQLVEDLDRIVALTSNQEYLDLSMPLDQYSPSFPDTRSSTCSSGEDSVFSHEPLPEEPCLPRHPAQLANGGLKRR

SMILES	IC50 [1]	IC50 [5]	IC50 [7]	IC50 [8]	IC50 [9]	IC50 [2]	IC50 [3]	IC50 [4]	IC50 (A549)	Activity [6]
CC(=O)Nc1nc(O)c2nc(-c3c[nH]c4ccccc34)[nH]c2n1	> 20 µM					8.96 µM	47.7 µM	10.8 µM	9.39 µM	
COc1ccccc1-c1nc2c(O)nc(NC(C)=O)nc2[nH]1	> 20 µM	> 20 µM								
CC(=O)Nc1nc(O)c2nc(-c3ccc(C)cc3C)[nH]c2n1	> 20 µM									
CC(=O)Nc1nc(O)c2nc(-c3ccccc3)[nH]c2n1	> 20 µM	> 20 µM								
COc1cc(CCc2cc(NC(=O)c3ccc(N4C[C@@H](C)N[C@@H](C)C4)cc3)n[nH]2)cc(OC)c1 [FEXAGRATINIB]						0.051 µM	18.2 µM	0.14 µM	0.062 µM	Non-toxic
CC(C)(C)NC(=O)Nc1nc2nc(N)ncc2cc1-c1c(Cl)cccc1Cl	0.56 µM	0.29 µM		110 nM	130 nM	2.62 µM	28.4 µM	3.87 µM	4.34 µM	

Continued, in another order:

IC50 [1]	IC50 [5]	IC50 [7]	IC50 [8]	IC50 [9]	SMILES	IC50 [2]	IC50 [3]	IC50 [4]	IC50 (A549)	Activity [6]
> 20 µM	> 20 µM				Cc1ccc(-c2nc3c(O)nc(N)nc3[nH]2)c(C)c1					
> 20 µM	> 20 µM				COc1ccccc1-c1nc2c(O)nc(N)nc2[nH]1					
> 20 µM	> 20 µM				Nc1nc(O)c2nc(-c3ccccc3)[nH]c2n1					
> 20 µM					CC(=O)Nc1nc(O)c2nc(-c3c[nH]c4cccc(Br)c34)[nH]c2n1	6.59 µM	46.6 µM	9.72 µM	8.28 µM	Non-toxic
> 20 µM	> 20 µM				COc1cccc(-c2nc3c(O)nc(NC(C)=O)nc3[nH]2)c1OC	10.8 µM	50 µM	10.5 µM	11.9 µM	
0.13 µM		20 nM			CN1CCN(c2ccc(-c3nc4c(N5CCN(CC(=O)Nc6nccs6)CC5)c(Cl)cnc4[nH]3)cc2)CC1	1.61 µM	27.6 µM	4.37 µM	2.59 µM	
> 20 µM	> 20 µM				Nc1nc(O)c2nc(-c3c[nH]c4ccccc34)[nH]c2n1	10.3 µM	47 µM	15.4 µM	10.4 µM	

Source: ChEMBL document CHEMBL3399963, “Design, synthesis and preliminary biological evaluation of C-8 substituted guanine derivatives as small molecular inhibitors of FGFRs” (Bioorg Med Chem Lett, 2015)
